Measurements as given in publication PMC3004780 (Journal of nuclear medicine : official publication, Society …, 2009).

Key:
[1] = tested on: Klebsiella pneumoniae lung inflammation model; format: in vivo, mouse
[2] = tested on: Klebsiella pneumoniae lung inflammation model; format: in vivo, mouse; conditions: excised tissue, 18 hr post injection, control n=4, Klebsiella-infected n=6 mice
[3] = mouse, in vivo
neutrophil FPR = conditions: read-out: Kd for neutrophil FPR; unaltered parent peptide, antagonist; cited from earlier work

Substance	Average lung SUV, control mice ([1]; PET 18 hr post injection, n=4, mean ± SD)	Average lung SUV, Klebsiella infected mice ([1]; PET 18 hr post injection, n=6, mean ± SD)	Ligand half-life in the control lung ([1]; mouse, in vivo)	Ligand half-life in the infected lung ([1]; mouse, in vivo)	Mean ratio of radioactivity in infected to control lungs [2]	Blood half-life [3]	Blood clearance (biological) half-life ([3]; iv)	Kd (neutrophil FPR)
cFLFLF-PEG76-DOTA-^64Cu [cFLFLFK-PEG-^64Cu]	0.028 ± 0.003	0.142 ± 0.054	4.8 ± 0.7 h	10.3 ± 2.9 h	3.8	approximately 1 hour	55 ± 8 min	–
N-cinnamoyl-F-(D)L-F-(D)L-F [cFLFLF]	–	–	–	–	–	–	–	2 nM
